Laboratory results published in patent publication US10507233B2, “Universal N-glycan binding reagent” (New England Biolabs, Inc., priority 2014, dated 2019).

Biological target: T1, SNAP-Fbs: human Fbs sugar binding domain, wild type, SEQ ID NO: 2, fused to SNAP-tag (fusion SEQ ID NO: 3), on beads (Homo sapiens, UniProt Q9UK22)
T1 construct: SNAP-only beads as control
T1 sequence (Q9UK22 113-296): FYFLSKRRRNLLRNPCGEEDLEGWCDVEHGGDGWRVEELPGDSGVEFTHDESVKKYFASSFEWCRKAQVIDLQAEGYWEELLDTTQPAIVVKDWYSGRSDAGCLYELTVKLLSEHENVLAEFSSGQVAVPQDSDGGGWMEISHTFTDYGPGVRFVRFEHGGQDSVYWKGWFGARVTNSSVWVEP
Experiment: Binding of 2-AB labeled M3N2 to SNAP-Fbs beads versus SNAP control beads
Conditions: 50 picomoles, low salt buffer, SNAP-Fbs beads vs SNAP control beads
Protocol: SNAP-Fbs is efficiently conjugated to BG beads (SNAP Capture Pull-Down resin (New England Biolabs, Ipswich, Mass.): SNAP-Fbs protein is reacted with BG beads at 4° C. overnight in a DTT-containing buffer (4 mM DTT, 20 mM tris-HCl pH 7.5, 1 mM EDTA, 50 mM NaCl). After the conjugation reaction, SNAP-Fbs beads are washed with 40× bead volume of low salt buffer.
When PNGase F is used to trim N-glycans away from the peptides or proteins, the terminal GlcNAc residue becomes available for modification. A common modification is fluorophore labeling using 2-AB dye. The primary amino group of the dye performs a nucleophilic attack on the carbonyl carbon of the acyclic reducing terminal residue to form a partially stable Schiff's base. […] The conserved terminal GlcNAc residue is thus referred to as the “reducing end” of a glycan species. Upon 2-AB labeling, the carbohydrate ring structure is no longer capable of forming. Fifty picomoles of 2-AB labeled M3N2 in low salt buffer were incubated with SNAP-Fbs beads or SNAP control beads (SNAP Capture beads conjugated to SNAP-tag Purified Protein, New England Biolabs, Ipswich, Mass.).

## CC(=O)N[C@H]1[C@H](O[C@@H]([C@H](O)[C@H](CNc2ccccc2C(N)=O)NC(C)=O)[C@H](O)CO)O[C@H](CO)[C@@H](O[C@@H]2O[C@H](CO[C@H]3O[C@H](CO)[C@@H](O)[C@H](O)[C@@H]3O)[C@@H](O)[C@H](O[C@H]3O[C@H](CO)[C@@H](O)[C@H](O)[C@@H]3O)[C@@H]2O)[C@@H]1O [2-AB labeled M3N2]
  binding of 2-AB labeled M3N2: 2-AB labeling disrupts the interaction between glycan and Fbs and completely abolishes binding
